Test results taken from ChEMBL document CHEMBL5608196, “1,3,5-Triazine as a promising scaffold in the development of therapeutic agents against breast cancer” (Eur J Med Chem, 2024).
pIC50, pKi: −log10 of the molar value.

Assays:
[1] = test system: MCF7; assay: Anticancer activity against human MCF7 cells; format: functional, cell-based
[2] = molecular target: Carbonic anhydrase 9 (Homo sapiens, UniProt Q16790); assay: Inhibition of human CA-IX
[3] = test system: MCF7; assay: Anti-cancer activity against human MCF7 cells; format: functional, cell-based
[4] = test system: MCF7; assay: Cytotoxicity against human MCF7 cells
[5] = molecular target: Serine/threonine-protein kinase mTOR (Homo sapiens, UniProt P42345); assay: Inhibition of mTOR (unknown origin)
[6] = test system: MCF7; assay: Anti-proliferative activity against human MCF7 cells by MTT assay; format: functional, cell-based
[7] = molecular target: T1, Epidermal growth factor receptor (Homo sapiens, UniProt P00533); assay: Inhibition of EGFR (unknown origin)
T1 sequence (P00533 whole entry): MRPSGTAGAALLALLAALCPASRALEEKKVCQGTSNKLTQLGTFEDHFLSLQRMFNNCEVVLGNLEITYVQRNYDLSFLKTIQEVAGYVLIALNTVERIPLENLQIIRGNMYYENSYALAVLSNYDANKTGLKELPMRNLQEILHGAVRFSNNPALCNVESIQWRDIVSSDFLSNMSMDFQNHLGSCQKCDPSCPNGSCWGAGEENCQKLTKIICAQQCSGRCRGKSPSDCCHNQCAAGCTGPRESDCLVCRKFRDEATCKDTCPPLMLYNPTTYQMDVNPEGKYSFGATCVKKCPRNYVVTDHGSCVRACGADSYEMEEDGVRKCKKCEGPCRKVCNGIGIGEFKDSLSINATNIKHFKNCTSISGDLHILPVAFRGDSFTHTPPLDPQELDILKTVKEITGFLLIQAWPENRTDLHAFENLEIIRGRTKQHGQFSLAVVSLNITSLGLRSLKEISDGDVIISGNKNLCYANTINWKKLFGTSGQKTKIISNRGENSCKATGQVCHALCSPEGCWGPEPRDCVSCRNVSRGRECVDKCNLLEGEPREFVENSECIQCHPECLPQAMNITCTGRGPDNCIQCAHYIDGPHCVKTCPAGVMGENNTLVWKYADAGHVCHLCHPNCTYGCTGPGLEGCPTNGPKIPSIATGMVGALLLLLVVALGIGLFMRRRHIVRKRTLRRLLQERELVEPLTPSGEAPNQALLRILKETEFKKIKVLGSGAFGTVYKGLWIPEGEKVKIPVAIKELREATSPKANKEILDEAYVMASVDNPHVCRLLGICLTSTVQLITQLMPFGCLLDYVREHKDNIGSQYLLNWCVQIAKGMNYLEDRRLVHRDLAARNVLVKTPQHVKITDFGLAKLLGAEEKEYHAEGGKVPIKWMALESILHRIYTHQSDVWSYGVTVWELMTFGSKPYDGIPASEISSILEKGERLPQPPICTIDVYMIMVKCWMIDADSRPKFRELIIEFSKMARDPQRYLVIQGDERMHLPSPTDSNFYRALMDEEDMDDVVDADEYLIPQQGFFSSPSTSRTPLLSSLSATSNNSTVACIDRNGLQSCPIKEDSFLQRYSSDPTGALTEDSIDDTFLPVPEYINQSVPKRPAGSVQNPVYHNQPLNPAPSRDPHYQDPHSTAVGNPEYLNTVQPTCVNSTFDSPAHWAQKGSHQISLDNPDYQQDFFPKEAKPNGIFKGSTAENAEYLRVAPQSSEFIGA

[8] = molecular target: T1, Epidermal growth factor receptor; assay: Inhibition of EGFR (unknown origin) using Poly (Glu, Tyr) as substrate at 10 uM incubated for 40 mins in presence of ATP by Kinase-Glo Plus luminescence kinase assay relative to control
[9] = test system: MCF7; assay: Anticancer activity against human MCF7 cells incubated for 24 hrs by MTT assay; format: functional, cell-based; details: MCF7, 24 h
[10] = test system: MDA-MB-231; assay: Inhibition of cell proliferation of human MDA-MB-231 cells incubated for 24 hrs by MTT assay; format: functional, cell-based; details: MDA-MB-231, 24 h
[11] = test system: MCF7; assay: Inhibition of cell proliferation of human MCF7 cells incubated for 24 hrs by MTT assay; format: functional, cell-based; details: MCF7, 24 h
[12] = test system: MCF7; assay: Anti-proliferative activity against human MCF7 cells incubated for 72 hrs by MTT assay; format: functional, cell-based; details: MCF7, 72 h
[13] = test system: MCF7; assay: Anticancer activity against human MCF7 cells incubated for 48 hrs by MTT assay; details: MCF7, 48 h
[14] = molecular target: T2, Phosphatidylinositol 4,5-bisphosphate 3-kinase catalytic subunit alpha isoform (Homo sapiens, UniProt P42336); assay: Inhibition of PI3K-alpha (unknown origin) at 100 uM relative to control
T2 sequence (P42336 whole entry, canonical isoform): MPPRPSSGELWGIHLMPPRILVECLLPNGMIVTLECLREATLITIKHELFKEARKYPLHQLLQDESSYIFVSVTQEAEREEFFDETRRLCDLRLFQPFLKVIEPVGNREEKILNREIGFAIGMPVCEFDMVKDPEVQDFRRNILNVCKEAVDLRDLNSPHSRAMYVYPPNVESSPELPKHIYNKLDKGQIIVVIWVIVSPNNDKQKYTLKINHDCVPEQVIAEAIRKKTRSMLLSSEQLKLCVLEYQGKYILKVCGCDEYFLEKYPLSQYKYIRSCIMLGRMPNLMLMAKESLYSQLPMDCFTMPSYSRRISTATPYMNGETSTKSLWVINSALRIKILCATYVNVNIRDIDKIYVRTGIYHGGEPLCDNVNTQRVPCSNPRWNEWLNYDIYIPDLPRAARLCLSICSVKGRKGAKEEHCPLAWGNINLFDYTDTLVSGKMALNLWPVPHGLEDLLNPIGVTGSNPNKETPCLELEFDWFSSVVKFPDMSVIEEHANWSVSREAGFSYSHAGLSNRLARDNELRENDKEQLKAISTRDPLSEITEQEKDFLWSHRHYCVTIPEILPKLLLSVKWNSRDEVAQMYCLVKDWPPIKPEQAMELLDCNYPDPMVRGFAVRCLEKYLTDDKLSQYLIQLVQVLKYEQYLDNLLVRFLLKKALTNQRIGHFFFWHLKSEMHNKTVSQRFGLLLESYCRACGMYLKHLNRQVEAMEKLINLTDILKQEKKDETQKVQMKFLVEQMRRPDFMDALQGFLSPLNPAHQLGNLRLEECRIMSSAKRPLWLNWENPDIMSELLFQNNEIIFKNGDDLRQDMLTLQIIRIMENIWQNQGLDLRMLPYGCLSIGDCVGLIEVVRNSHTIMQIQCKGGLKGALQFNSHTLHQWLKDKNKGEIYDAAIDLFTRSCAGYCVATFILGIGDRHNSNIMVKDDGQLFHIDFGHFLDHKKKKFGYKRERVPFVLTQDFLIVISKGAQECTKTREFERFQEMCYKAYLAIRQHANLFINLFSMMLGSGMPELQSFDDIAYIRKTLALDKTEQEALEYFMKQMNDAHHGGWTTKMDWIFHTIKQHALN

[15] = test system: MCF7; assay: Cytotoxicity against human MCF7 cells assessed as cell growth inhibition incubated for 72 hrs by MTT assay; format: functional, cell-based; details: MCF7, 72 h
[16] = test system: MDA-MB-231; assay: Cytotoxicity against human MDA-MB-231 cells incubated for 72 hrs by MTT assay; format: functional, cell-based; details: MDA-MB-231, 72 h
[17] = Inhibition of PI3K (unknown origin); design: species or system Homo sapiens
[18] = test system: MCF7; assay: Inhibition of cell viability in human MCF7 cells incubated for 48 hrs by MTT assay; format: functional, cell-based; details: MCF7, 48 h
[19] = molecular target: T1, Epidermal growth factor receptor; assay: Inhibition of EGFR (unknown origin) by ELISA
[20] = test system: MCF7; assay: Anticancer activity against human MCF7 cells incubated for 24 to 72 hrs by MTT assay; format: functional, cell-based
[21] = test system: MDA-MB-231; assay: Antiproliferative activity against human MDA-MB-231 cells; format: functional, cell-based
[22] = test system: MDA-MB-468; assay: Anticancer activity against human MDA-MB-468 cells assessed as cell growth inhibition under hypoxia incubated for 48 hrs by SRB assay relative to control; format: functional
[23] = test system: MDA-MB-468; assay: Anticancer activity against human MDA-MB-468 cells assessed as cell growth inhibition incubated for 48 hrs by SRB assay; format: functional, cell-based; details: MDA-MB-468, 48 h
[24] = test system: MDA-MB-468; assay: Anticancer activity against human MDA-MB-468 cells assessed as cell growth inhibition under normoxia at 10 uM incubated for 48 hrs by SRB assay relative to control; format: functional; details: read-out: GI
[25] = test system: MCF7; assay: Antitumor activity against human MCF7 cells by MTT assay
[26] = molecular target: T2, Phosphatidylinositol 4,5-bisphosphate 3-kinase catalytic subunit alpha isoform; assay: Inhibition of PI3K-alpha (unknown origin)
[27] = test system: MDA-MB-231; assay: Inhibition of cell survival in human MDA-MB-231 cells incubated for 72 hrs by MTT assay; format: functional, cell-based; details: MDA-MB-231, 72 h

Compound: CC1=NN(c2nc(Nc3ccc(Br)cc3)nc(-n3nc(C)cc3C)n2)C(C)C1 (stereo unspecified)
- pIC50 [1]: 5.58

Compound: NS(=O)(=O)c1ccc(CNc2nc(Cl)nc(Nc3ccc(O)cc3)n2)cc1
- pKi [2]: 9.40

Compound: COc1nc(OC)nc(-c2nc(-c3nnc(-c4cc([N+](=O)[O-])c(Br)c([N+](=O)[O-])c4)o3)co2)n1
- pIC50 [3]: 7.02

Compound: CNC(=O)Nc1ncc(-c2nc(-c3ccc(CN4CCN(S(C)(=O)=O)CC4)s3)nc(N3CCOCC3)n2)cn1
- pIC50 [4]: 7.52
- pIC50 [5]: 7.96

Compound: NCc1ccc(-c2nc(N/N=C/c3ccc(Br)cc3)nc(N3CCCCC3)n2)cc1
- pIC50 [6]: 5.33

Compound: Cc1cc(C)n(-c2nc(Nc3ccc(Br)cc3)nc(N3CCOCC3)n2)n1
- pIC50 [7]: 7.21
- pIC50 [1]: 5.34

Compound: COc1ccc(Nc2nc(N3CCCC3)nc(-n3nc(C)cc3C)n2)cc1
- pIC50 [1]: 5.42

Compound: COc1nc(OC)nc(-c2nc(-c3nnc(-c4cc(OC)c(OC)c(OC)c4)o3)co2)n1
- pIC50 [3]: 7.60

Compound: CCOC(=O)C1=CN(c2nc(Nc3cccc(F)c3)nc(Nc3cccc(F)c3)n2)C(=S)NC1c1ccccc1OC (stereo unspecified)
- inhibition [8]: 94.3%
- pIC50 [9]: 4.32

Compound: COc1nc(Nc2ccc(C#N)cc2)nc(N2CCOCC2)n1
- pIC50 [10]: 5.11
- pIC50 [11]: 5.37

Compound: C(=N\Nc1nc(N2CCOCC2)nc(N2CCOCC2)n1)/c1ccccc1
- pIC50 [12]: 6.00

Compound: CCOC(=O)C1=CN(c2nc(Nc3cccc(F)c3)nc(Nc3cccc(F)c3)n2)C(=S)NC1c1ccc(F)cc1 (stereo unspecified)
- inhibition [8]: 96.4%
- pIC50 [9]: 4.38

Compound: Cc1nc2cc(Br)c(Br)cc2c(=O)n1-c1ccc(Nc2nc(Nc3ccc(Br)cc3)nc(N3CCCCC3)n2)cc1
- pIC50 [13]: 4.75

Compound: Cc1nc2cc(Br)c(Br)cc2c(=O)n1-c1ccc(Nc2nc(Nc3ccc(Cl)cc3)nc(N3CCCCC3)n2)cc1
- pIC50 [13]: 4.74

Compound: O=[N+]([O-])c1ccc(Nc2nc(NC(=S)NNc3ccnc4ccccc34)nc(Nc3ccc([N+](=O)[O-])cc3)n2)cc1
- inhibition [8]: 96.3%
- pIC50 [13]: 4.28

Compound: CCN(CC)c1nc(Nc2ccc(S(=O)(=O)NC(=N)N)cc2)nc(NN2CCOCC2)n1
- inhibition [14]: 68%
- pIC50 [1]: < 4.00

Compound: COc1cc(-c2nc(N)nc(Nc3ccc(C)cc3)n2)cc(OC)c1OC
- pIC50 [15]: < 4.70

Compound: CN(C)c1ccc(-c2nc(N)nc(Nc3ccccc3F)n2)cc1
- pIC50 [15]: < 4.70

Compound: C=CCc1cc(C)cc(/C=N/NC(=O)Nc2ccc(-c3nc(N4CCOCC4)nc(N4CCOCC4)n3)cc2)c1O
- pIC50 [16]: 6.22

Compound: COc1cc(OC)cc(-c2nnc(-c3coc(-c4nc(OC)nc(OC)n4)n3)o2)c1
- pIC50 [3]: 6.96

Compound: FC(F)c1nc2ccccc2n1-c1nc(N2CCOCC2)nc(N2CCOCC2)n1 [ZSTK-474]
- pIC50 [17]: 7.43

Compound: COc1ccc(/C=N/NC(=O)Nc2ccc(-c3nc(N4CCOCC4)nc(N4CCOCC4)n3)cc2)cc1
- pIC50 [16]: 6.28

Compound: CCN(CC)c1nc(NC(=S)NNc2ccnc3ccccc23)nc(N(CC)CC)n1
- inhibition [8]: 90.5%
- pIC50 [13]: 4.49

Compound: CCN(CC)c1nc(Nc2ccc(S(=O)(=O)NC(=N)N)cc2)nc(NC2CCCCC2)n1
- pIC50 [1]: 4.74

Compound: CN(C)c1nc(Cl)nc(NC2=NN(c3ccc(Br)cc3)C(c3ccc(C(F)(F)F)cc3)C2)n1 (stereo unspecified)
- pIC50 [18]: 7.89
- pIC50 [19]: 6.54

Compound: Cc1nc2ccc(Br)cc2c(=O)n1Nc1nc(Nc2cccc(Cl)c2)nc(N2CCNCC2)n1
- pIC50 [20]: 5.15

Compound: CC1CCN(c2nc(Cl)nc(Oc3ccc(-c4coc5cc(Oc6nc(Cl)nc(N7CCC(C)CC7)n6)cc(O)c5c4=O)cc3)n2)CC1
- pIC50 [21]: 4.64

Compound: CC1=NN(c2nc(Nc3ccc(Cl)cc3)nc(-n3nc(C)cc3C)n2)C(C)C1 (stereo unspecified)
- pIC50 [1]: 5.64

Compound: CN(C)c1ccc(/C=C(\C#N)c2nc(N)nc(Nc3ccc(S(N)(=O)=O)cc3)n2)cc1
- growth inhibition (GI) [22]: 60%
- pIC50 [23]: 5.83
- inhibition of growth at 10 µM [24]: 62%

Compound: NCc1ccc(-c2nc(N/N=C/c3ccc(Cl)cc3)nc(N3CCCCC3)n2)cc1
- pIC50 [12]: 5.48

Compound: CCN(CC)c1nc(Nc2ccccc2)nc(Nc2ccc(S(=O)(=O)NC(=N)N)cc2)n1
- pIC50 [1]: 4.76

Compound: N#C/C(=C\c1cccc(F)c1)c1nc(N)nc(Nc2ccc(S(N)(=O)=O)cc2)n1
- growth inhibition (GI) [22]: 65%
- pIC50 [23]: 5.83

Compound: COc1nc(OC)nc(-c2nc(-c3nnc(-c4cc([N+](=O)[O-])cc([N+](=O)[O-])c4)o3)co2)n1
- pIC50 [3]: 5.87

Compound: CS(=O)(=O)N1CCN(Cc2ccc(-c3nc(-c4cnc(N)nc4)nc(N4CCOCC4)n3)s2)CC1
- pIC50 [5]: 7.32
- pIC50 [25]: 5.90

Compound: COc1ccc(Nc2nc(N3CCOCC3)nc(-n3nc(C)cc3C)n2)cc1
- pIC50 [1]: 5.53

Compound: COc1nc(Nc2ccc(C#N)cc2)nc(-c2ccc(N)cc2)n1
- pIC50 [10]: 5.07
- pIC50 [11]: 6.11

Compound: CN(C)C(=O)C1CCC(Oc2nc(-c3cccc4[nH]ncc34)nc(N3CCOCC3)n2)CC1 (stereo unspecified)
- pIC50 [26]: 7.22

Compound: Cc1cc(/C=N/NC(=O)Nc2ccc(-c3nc(N4CCOCC4)nc(N4CCOCC4)n3)cc2)cc(C)c1O
- pIC50 [16]: 6.40

Compound: Cc1nc2cc(Br)c(Br)cc2c(=O)n1-c1ccc(Nc2nc(N3CCCCC3)nc(N3CCOCC3)n2)cc1
- pIC50 [13]: 4.76

Compound: Cc1nc2ccc(Br)cc2c(=O)n1Nc1nc(Nc2ccc([N+](=O)[O-])cc2)nc(N2CCNCC2)n1
- pIC50 [20]: 5.02

Compound: COc1nc(N/N=C/c2ccccc2)nc(-c2ccc(N)cc2)n1
- pIC50 [6]: 5.40

Compound: CN(C)c1nc(Cl)nc(NC2=NN(c3ccc(C(F)(F)F)cc3)C(c3ccc(C(F)(F)F)cc3)C2)n1 (stereo unspecified)
- pIC50 [18]: 7.15
- pIC50 [19]: 6.64

Compound: Nc1nc(COC(=O)c2ccc([N+](=O)[O-])cc2)nc(Nc2ccccc2)n1
- pIC50 [27]: 5.22

Compound: Nc1ncc(-c2nc(-c3ccc(CN4CCOCC4)s3)nc(N3CCOCC3)n2)cn1
- pIC50 [5]: 7.16
- pIC50 [25]: 5.58

Compound: CNc1nc(Nn2c(C)nc3ccc(Br)cc3c2=O)nc(N2CCNCC2)n1
- pIC50 [20]: 5.02
